ChEMBL document CHEMBL3885881, “DrugMatrix”

Species: Rattus norvegicus
Test: DrugMatrix - Regimen: Daily Repeat
Assay type: toxicity, organism-based, Sprague-Dawley
Design: regimen Daily Repeat, gender Male, age 6-8 weeks
Conditions: in vivo, po, route oral GAVAGE, vehicle .5 % CMC; for ABSOLUTE BASOPHIL / ABSOLUTE EOSINOPHIL / ABSOLUTE LYMPHOCYTE / ABSOLUTE MONOCYTE / ABSOLUTE SEGMENTED NEUTROPHIL / BASOPHIL / EOSINOPHIL / ERYTHROCYTE COUNT / HEMATOCRIT / HEMOGLOBIN / LEUKOCYTE COUNT / LYMPHOCYTE / MEAN CORPUSCULAR HEMOGLOBIN / MEAN CORPUSCULAR HEMOGLOBIN CONCENTRATION / MEAN CORPUSCULAR VOLUME / MONOCYTE / NEUTROPHIL / NUCLEATED RED BLOOD CELLS / PLATELET COUNT: tissue Blood; for ALANINE AMINOTRANSFERASE / ALBUMIN / ALKALINE PHOSPHATASE / ASPARTATE AMINOTRANSFERASE / BLOOD UREA NITROGEN / CARBON DIOXIDE / CHLORIDE / CHOLESTEROL / CREATINE PHOSPHOKINASE / CREATININE / GLUCOSE / LACTATE DEHYDROGENASE / LIPASE / PHOSPHORUS / POTASSIUM / SODIUM / TOTAL BILIRUBIN / TOTAL PROTEIN / URIC ACID: tissue Plasma
[1] = 0 mg/kg, 72 h, dose level Control, time 3 day
[2] = 0 mg/kg, 120 h, dose level Control, time 5 day
[3] = 10 mg/kg, 72 h, dose level Low, time 3 day

Structure (SMILES): CC(C)(C#N)c1cc(Cn2cncn2)cc(C(C)(C)C#N)c1 [ANASTROZOLE]
- ABSOLUTE BASOPHIL [1]: 0 CELLS/uL
- ABSOLUTE EOSINOPHIL [1]: 0 CELLS/uL
- ABSOLUTE LYMPHOCYTE [1]: 10913.67 CELLS/uL
- ABSOLUTE MONOCYTE [1]: 85.33 CELLS/uL
- ABSOLUTE SEGMENTED NEUTROPHIL [1]: 1401 CELLS/uL
- BASOPHIL [1]: 0%
- EOSINOPHIL [1]: 0%
- ERYTHROCYTE COUNT [1]: 5.57 x10E6/uL
- HEMATOCRIT [1]: 35.58%
- HEMOGLOBIN [1]: 13.8 G/DL
- LEUKOCYTE COUNT [1]: 12.4 x10E3/uL
- LYMPHOCYTE [1]: 88%
- MEAN CORPUSCULAR HEMOGLOBIN [1]: 24.78 pg
- MEAN CORPUSCULAR HEMOGLOBIN CONCENTRATION [1]: 38.82 G/DL
- MEAN CORPUSCULAR VOLUME [1]: 63.88 fL
- MONOCYTE [1]: 0.67%
- NEUTROPHIL [1]: 11.33%
- NUCLEATED RED BLOOD CELLS [1]: 0 /100WBC
- PLATELET COUNT [1]: 1162.33 x10E3/uL
- ALANINE AMINOTRANSFERASE [1]: 53 u/L
- ALBUMIN [1]: 4.17 G/DL
- ALKALINE PHOSPHATASE [1]: 374.5 u/L
- ASPARTATE AMINOTRANSFERASE [1]: 89.5 u/L
- BLOOD UREA NITROGEN [1]: 16.33 mg/dL
- CARBON DIOXIDE [1]: 29.17 mmol/L
- CHLORIDE [1]: 97.67 MEQ/L
- CHOLESTEROL [1]: 77 mg/dL
- CREATINE PHOSPHOKINASE [1]: 464.83 u/L
- CREATININE [1]: 0.14 mg/dL
- GLUCOSE [1]: 164 mg/dL
- LACTATE DEHYDROGENASE [1]: 155.5 u/L
- LIPASE [1]: 9.17 u/L
- PHOSPHORUS [1]: 12.4 mg/dL
- POTASSIUM [1]: 6.91 MEQ/L
- SODIUM [1]: 141.47 MEQ/L
- TOTAL BILIRUBIN [1]: 0.2 mg/dL
- TOTAL PROTEIN [1]: 5.95 G/DL
- URIC ACID [1]: 1.72 mg/dL
- ABSOLUTE BASOPHIL [2]: 0 CELLS/uL
- ABSOLUTE EOSINOPHIL [2]: 20.5 CELLS/uL
- ABSOLUTE LYMPHOCYTE [2]: 13871.67 CELLS/uL
- ABSOLUTE MONOCYTE [2]: 60.5 CELLS/uL
- ABSOLUTE SEGMENTED NEUTROPHIL [2]: 980.67 CELLS/uL
- BASOPHIL [2]: 0%
- EOSINOPHIL [2]: 0.17%
- ERYTHROCYTE COUNT [2]: 5.65 x10E6/uL
- HEMATOCRIT [2]: 35.63%
- HEMOGLOBIN [2]: 14.08 G/DL
- LEUKOCYTE COUNT [2]: 14.93 x10E3/uL
- LYMPHOCYTE [2]: 92.83%
- MEAN CORPUSCULAR HEMOGLOBIN [2]: 24.97 pg
- MEAN CORPUSCULAR HEMOGLOBIN CONCENTRATION [2]: 39.55 G/DL
- MEAN CORPUSCULAR VOLUME [2]: 63.13 fL
- MONOCYTE [2]: 0.33%
- NEUTROPHIL [2]: 6.67%
- NUCLEATED RED BLOOD CELLS [2]: 0 /100WBC
- PLATELET COUNT [2]: 1248.17 x10E3/uL
- ALANINE AMINOTRANSFERASE [2]: 45.17 u/L
- ALBUMIN [2]: 4.27 G/DL
- ALKALINE PHOSPHATASE [2]: 405.67 u/L
- ASPARTATE AMINOTRANSFERASE [2]: 74.17 u/L
- BLOOD UREA NITROGEN [2]: 15.5 mg/dL
- CARBON DIOXIDE [2]: 30.17 mmol/L
- CHLORIDE [2]: 100.67 MEQ/L
- CHOLESTEROL [2]: 57 mg/dL
- CREATINE PHOSPHOKINASE [2]: 239.5 u/L
- CREATININE [2]: 0.17 mg/dL
- GLUCOSE [2]: 165.67 mg/dL
- LACTATE DEHYDROGENASE [2]: 90.5 u/L
- LIPASE [2]: 8.83 u/L
- PHOSPHORUS [2]: 12.32 mg/dL
- POTASSIUM [2]: 7.03 MEQ/L
- SODIUM [2]: 142.65 MEQ/L
- TOTAL BILIRUBIN [2]: 0.18 mg/dL
- TOTAL PROTEIN [2]: 6.03 G/DL
- URIC ACID [2]: 1.98 mg/dL
- ABSOLUTE BASOPHIL [3]: 0 CELLS/uL
- ABSOLUTE EOSINOPHIL [3]: 62 CELLS/uL
- ABSOLUTE LYMPHOCYTE [3]: 13335.67 CELLS/uL
- ABSOLUTE MONOCYTE [3]: 144.33 CELLS/uL
- ABSOLUTE SEGMENTED NEUTROPHIL [3]: 2091.33 CELLS/uL
- BASOPHIL [3]: 0%
- EOSINOPHIL [3]: 0.33%
- ERYTHROCYTE COUNT [3]: 5.84 x10E6/uL
- HEMATOCRIT [3]: 36.23%
- HEMOGLOBIN [3]: 14.47 G/DL
- LEUKOCYTE COUNT [3]: 15.63 x10E3/uL
- LYMPHOCYTE [3]: 85%
- MEAN CORPUSCULAR HEMOGLOBIN [3]: 24.77 pg
- MEAN CORPUSCULAR HEMOGLOBIN CONCENTRATION [3]: 39.93 G/DL
- MEAN CORPUSCULAR VOLUME [3]: 62 fL
- MONOCYTE [3]: 1%
- NEUTROPHIL [3]: 13.67%
- NUCLEATED RED BLOOD CELLS [3]: 0 /100WBC
- PLATELET COUNT [3]: 1170.33 x10E3/uL
- ALANINE AMINOTRANSFERASE [3]: 55.67 u/L
- ALBUMIN [3]: 4.13 G/DL
- ALKALINE PHOSPHATASE [3]: 405 u/L
- ASPARTATE AMINOTRANSFERASE [3]: 89.67 u/L
- BLOOD UREA NITROGEN [3]: 18.67 mg/dL
- CARBON DIOXIDE [3]: 29 mmol/L
- CHLORIDE [3]: 97 MEQ/L
- CHOLESTEROL [3]: 77 mg/dL
- CREATINE PHOSPHOKINASE [3]: 289.33 u/L
- CREATININE [3]: 0.1 mg/dL
- GLUCOSE [3]: 149.33 mg/dL
- LACTATE DEHYDROGENASE [3]: 219.33 u/L
- LIPASE [3]: 9.33 u/L
- PHOSPHORUS [3]: 13.03 mg/dL
- POTASSIUM [3]: 6.88 MEQ/L
- SODIUM [3]: 142.57 MEQ/L
- TOTAL BILIRUBIN [3]: 0.27 mg/dL
- TOTAL PROTEIN [3]: 5.8 G/DL
